From patent US6514997B2, “Antipicornaviral compounds and compositions, their pharmaceutical uses, and materials for their synthesis” (Agouron Pharmaceuticals, Inc., priority 1999, dated 2003)

C#CC[C@@H](C(=O)N[C@H](/C=C/C(=O)OC(C)(C)C)C[C@@H]1CCNC1=O)n1cccc(NC(=O)c2cc(C)on2)c1=O [Compound 41, trans-(2′S,3′″″S,4S)-4-[2′-(3″-{[1′″-(5″″-Methylisoxazol-3″″-yl)methanoyl]amino}-2′″-oxo-2′″H-pyridin-1′″-yl)pent-4″-ynoylamino]-5-(2′″″-oxopyrrolidin-3′″″-yl)pent-2-enoic Acid tert-Butyl Ester]
melting point: 195 °C (dec.)
